Laboratory results published in ChEMBL document CHEMBL1155495, “Structural study of phenyl boronic acid derivatives as AmpC beta-lactamase inhibitors” (Bioorg Med Chem Lett, 2010).

Experiment: Inhibition of AmpC beta lactamase by spectrophotometry
Settings: not given

SMILES | Ki [nM]
Nc1cc(B(O)O)ccc1C(=O)O | 1800
O=C(O)c1ccc(C(=O)Nc2cccc(S(=O)(=O)Nc3cc(B(O)O)ccc3C(=O)O)c2)cc1 | 100
O=C(O)c1ccc(B(O)O)cc1NS(=O)(=O)c1cccc(S(=O)(=O)Nc2cc(B(O)O)ccc2C(=O)O)c1 | 23
Cc1noc(C)c1S(=O)(=O)Nc1cc(B(O)O)ccc1C(=O)O | 350
O=C(O)c1ccc(C(=O)Nc2ccc(S(=O)(=O)Nc3cccc(B(O)O)c3)cc2)cc1 | 450
O=S(=O)(Nc1cccc(B(O)O)c1)c1cccc(S(=O)(=O)Nc2cccc(B(O)O)c2)c1 | 60

Experiment: Lipophilicity, log D of the compound
Assay type: physicochemical
Settings: octanol/water

SMILES | logD
O=C(O)c1ccc(B(O)O)cc1NS(=O)(=O)c1cc(S(=O)(=O)c2ccccc2)cs1 | 0.026
